Assay results reported in patent publication US20240109868A1, “EP300/CBP MODULATOR, PREPARATION METHOD THEREFOR AND USE THEREOF” (Miracure Biotechnology Limited, priority 2022, published 2024).

What was measured:
22Rv1 Cell = assay: 22RV1 cell growth inhibition, CellTiter-Glo, 72 h; format: cell-based; conditions: 22RV1 cells, 72 h culture
Summary of the method: (§1)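 Cells seeded at 5×10^3/well overnight in RPMI-1640/10% FBS, then exposed to compound (0.5% DMSO final) for 72 h at 37 °C.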

vCap Cell = assay: vCap cell growth inhibition, CellTiter-Glo, 72 h; format: cell-based; conditions: vCap cells, 72 h culture
Summary of the method: as §1

Structure (SMILES) | IC50 (22Rv1 Cell; Homo sapiens, 22Rv1, 72 h) [nM] | IC50 (vCap Cell; Homo sapiens, VCaP, 72 h) [nM] | IC50 (22Rv1 Cell) [nM] | IC50 (vCap Cell) [nM]
CC(=O)N1Cc2cc(C3CCN(C)C(=O)C3)cc(N3CCCc4cc(-c5cnn(C)c5)c(C(F)F)cc43)c2C1 (stereo not shown) [Compound M001127] | < 1000 | < 1000 |  | 
CC(=O)N1CCc2cc([C@H]3CC[C@@H](O)CC3)cc(N3CCCc4cc(-c5cnn(C)c5)c(C(F)F)cc43)c2C1 [Compound M001178] | > 1000 | > 1000 |  | 
CNC(=O)N1CCc2cc(C3CCN(C(C)=O)CC3)cc(N3CCCc4cc(-c5cnn(C)c5)c(C(F)F)cc43)c2C1 [Compound M001068] | < 1000 | < 1000 |  | 
CNC(=O)N1CCc2cc(C3CCN(C(=O)C4CCN(C)C4)CC3)cc(N3CCCc4cc(-c5cnn(C)c5)c(C(F)F)cc43)c2C1 (stereo not shown) [Compound M001085] | > 1000 | > 1000 |  | 
CNC(=O)N1CCc2cc([C@H]3CC[C@@H](NS(C)(=O)=O)CC3)cc(N3CCCc4cc(-c5cnn(C)c5)c(C(F)F)cc43)c2C1 [Compound M001313] | > 1000 | < 1000 |  | 
CN1Cc2c(cc(C3CCNCC3)cc2N2CCCc3cc(-c4cnn(C)c4)c(C(F)F)cc32)CC1=O [Compound M001027] | > 1000 | > 1000 |  | 
CNC(=O)N1CCc2cc(C3CCC(OC)CC3)cc(N3CCCc4cc(-c5cnn(C)c5)c(C(F)F)cc43)c2C1 (stereo not shown) [Compound M001199] |  |  | > 1000 | > 1000
CC(=O)N1CCc2cccc(N3CCCc4cc(-c5cnn(C)c5)c(C(F)F)cc43)c2C1 [Compound M001207] | > 1000 | > 1000 |  | 
CNC(=O)N1Cc2cc(C3CC4CCC(C3)N4)cc(N3CCCc4cc(-c5cnn(C)c5)c(C(F)F)cc43)c2C1 (stereo not shown) [Compound M001099] | > 1000 | > 1000 |  | 
CNC(=O)N1CCc2cc(C3CCC(=O)N(CC(C)(C)O)C3)cc(N3CCCc4cc(-c5cnn(C)c5)c(C(F)F)cc43)c2C1 (stereo not shown) [Compound M001230] | < 1000 | < 1000 |  | 
CNC(=O)N1CCc2cc(C3CC4CCC(C3)N4C)cc(N3CCCc4cc(-c5cnn(C)c5)c(C(F)F)cc43)c2C1 (stereo not shown) [Compound M001035] | > 1000 | > 1000 |  | 
CCN1CCC(c2cc3c(c(N4CCCc5cc(-c6cnn(C)c6)c(C(F)F)cc54)c2)CN(C(N)=O)CCC3)CC1=O (stereo not shown) [Compound M001261] | > 1000 | > 1000 |  | 
CNC(=O)N1CCc2cc(C3CCC(=O)N(CCOC)C3)cc(N3CCCc4cc(-c5cnn(C)c5)c(C(F)F)cc43)c2C1 (stereo not shown) [Compound M001222] | < 1000 | < 1000 |  | 
CCN1CCC(c2cc3c(c(N4CCCc5cc(-c6cnn(C)c6)c(C(F)F)cc54)c2)CN(C(=O)NC)CCC3)CC1=O (stereo not shown) [Compound M001263] | > 1000 | > 1000 |  | 
CCN1CCC(c2cc3c(c(N4CCCc5cc(-c6cnn(C)c6)c(C(F)F)cc54)c2)CN(C(=O)OC)CCC3)CC1=O (stereo not shown) [Compound M001260, methyl 9-(7-(difluoromethyl)-6-(1-methyl-1H-pyrazol-4-yl)-3,4-dihydroquinolin-1(2H)-yl)-7-(1-ethyl-2-oxopiperidin-4-yl)-1,3,4,5-tetrahydro-2H-benzo[c]azepine-2-carboxylate] | > 1000 | > 1000 |  | 
CNC(=O)N1CCc2cc(C3CCN(CC(F)F)CC3)cc(N3CCCc4cc(-c5cnn(C)c5)c(C(F)F)cc43)c2C1 [Compound M001055] | > 1000 | > 1000 |  | 

Structure (SMILES) | IC50 (22Rv1 Cell; Homo sapiens, 22Rv1, 72 h) [nM] | IC50 (vCap Cell; Homo sapiens, VCaP, 72 h) [nM] | IC50 (22Rv1 Cell) [nM] | IC50 (vCap Cell) [nM]
CC(=O)N1Cc2cc(C3CCN(CC(F)F)CC3)cc(N3CCCc4cc(-c5cnn(C)c5)c(C(F)F)cc43)c2C1 [Compound M001058] | > 1000 | > 1000 |  | 
CNC(=O)N1CCc2cc(C3CCN(C(=O)C4CNC4)CC3)cc(N3CCCc4cc(-c5cnn(C)c5)c(C(F)F)cc43)c2C1 [Compound M001083] | > 1000 | > 1000 |  | 
CCN1CC(c2cc3c(c(N4CCCc5cc(-c6cnn(C)c6)c(C(F)F)cc54)c2)CN(C(C)=O)C3)CCC1=O (stereo not shown) [Compound M001224] | < 1000 | < 1000 |  | 
CC(=O)N1Cc2cc(C3CCN(C4COC4)CC3)cc(N3CCCc4cc(-c5cnn(C)c5)c(C(F)F)cc43)c2C1 [Compound M001056] | > 1000 | > 1000 |  | 
CON[C@H]1CC[C@@H](c2cc3c(c(N4CCCc5cc(-c6cnn(C)c6)c(C(F)F)cc54)c2)CN(C(C)=O)C3)CC1 [Compound M001340] | > 1000 | > 1000 |  | 
CC(=O)N1Cc2cc(C3CCC(N)CC3)cc(N3CCCc4cc(-c5cnn(C)c5)c(C(F)F)cc43)c2C1 (stereo not shown) [Compound M001301, 1-(6-(4-aminocyclohexyl)-4-(7-(difluoromethyl)-6-(1-methyl-1H-pyrazol-4-yl)-3,4-dihydroquinolin-1(2H)-yl)isoindolin-2-yl)ethan-1-one] | > 1000 | > 1000 |  | 
CNC(=O)N1CCc2cc(C3CCC(=O)N(C)C3)cc(N3CCCc4cc(-c5cnn(C)c5)c(C(F)F)cc43)c2C1 (stereo not shown) [Compound M001170] | < 1000 | < 1000 |  | 
Cn1cc(-c2cc3c(cc2C(F)F)N(c2cccc4c2NC(=O)CCC4)CCC3)cn1 [Compound M001236, 9-[7-(difluoromethyl)-6-(1-methylpyrazol-4-yl)-3,4-dihydro-2H-quinolin-1-yl]-1,3,4,5-tetrahydro-1-benzazepin-2-one] | > 1000 | > 1000 |  | 
CNC(=O)N1Cc2cc(C3CCNC(=O)C3)cc(N3CCCc4cc(-c5cnn(C)c5)c(C(F)F)cc43)c2C1 (stereo not shown) [Compound M001118] | > 1000 | > 1000 |  | 
COC(=O)N1C2CCC1CC(c1cc3c(c(N4CCCc5cc(-c6cnn(C)c6)c(C(F)F)cc54)c1)CN(C(C)=O)C3)C2 (stereo not shown) [Compound M001132] | > 1000 | < 1000 |  | 
CC(=O)N1Cc2cc(C3CCN(C)C3)cc(N3CCCc4cc(-c5cnn(C)c5)c(C(F)F)cc43)c2C1 (stereo not shown) [Compound M001047] | > 1000 | > 1000 |  | 
CC(=O)N1Cc2cc(C3CCN(C(=O)c4ccccc4)CC3)cc(N3CCCc4cc(-c5cnn(C)c5)c(C(F)F)cc43)c2C1 [Compound M001081] | < 1000 | < 1000 |  | 
CC(=O)N1Cc2cc(C3CCN(C(=O)C4CC4)CC3)cc(N3CCCc4cc(-c5cnn(C)c5)c(C(F)F)cc43)c2C1 [Compound M001072] | > 1000 | > 1000 |  | 
CCOC(=O)N1CCc2cc(Cl)cc(N3CCCc4cc(-c5cnn(C)c5)c(C(F)F)cc43)c2C1 [Compound M001228] | > 1000 | > 1000 |  | 
CNC(=O)N1CCc2cc(C3CCN(C(=O)C4CC4)CC3)cc(N3CCCc4cc(-c5cnn(C)c5)c(C(F)F)cc43)c2C1 [Compound M001069] | < 1000 | > 1000 |  | 
CNC(=O)N1Cc2cc(C3CC4CCC(C3)N4C(=O)NC)cc(N3CCCc4cc(-c5cnn(C)c5)c(C(F)F)cc43)c2C1 (stereo not shown) [Compound M001116] | > 1000 | > 1000 |  | 

Results, then the compound that gave them:

IC50 (22Rv1 Cell; Homo sapiens, 22Rv1, 72 h) [nM] | IC50 (vCap Cell; Homo sapiens, VCaP, 72 h) [nM] | IC50 (22Rv1 Cell) [nM] | IC50 (vCap Cell) [nM] | Structure (SMILES)
> 1000 | > 1000 |  |  | CNC(=O)N1CCc2cc(N3CCN(C)CC3)cc(N3CCCc4cc(-c5cnn(C)c5)c(C(F)F)cc43)c2C1 [Compound M001045]
> 1000 | > 1000 |  |  | CNC(=O)N1CCc2cc(N3CCOCC3)cc(N3CCCc4cc(-c5cnn(C)c5)c(C(F)F)cc43)c2C1 [Compound M001014, 8-(7-(difluoromethyl)-6-(1-methyl-1H-pyrazol-4-yl)-3,4-dihydroquinolin-1(2H)-yl)-N-methyl-6-morpholine-3,4-dihydroisoquinoline-2(1H)-carboxamide]
> 1000 | > 1000 |  |  | CON[C@H]1CC[C@H](c2cc3c(c(N4CCCc5cc(-c6cnn(C)c6)c(C(F)F)cc54)c2)CN(C(C)=O)C3)CC1 [Compound M001341]
> 1000 | > 1000 |  |  | CNC(=O)N1CCc2cc(C3CCNCC3)cc(N3CCCc4cc(-c5cnn(C)c5)c(C(F)F)cc43)c2C1 [Compound M001017]
> 1000 | > 1000 |  |  | CC(=O)N1Cc2cc(C3CCN(CC(F)(F)F)CC3)cc(N3CCCc4cc(-c5cnn(C)c5)c(C(F)F)cc43)c2C1 [Compound M001057]
< 1000 | < 1000 |  |  | CNC(=O)N1CCc2cc(-c3ccc(=O)n(C)c3)cc(Nc3cc(C(F)F)c(-c4cnn(C)c4)cc3F)c2C1 [Compound M001239, 8-((5-(difluoromethyl)-2-fluoro-4-(1-methyl-1H-pyrazol-4-yl)phenyl)amino)-N-methyl-6-(1-methyl-6-oxo-1,6-dihydropyridin-3-yl)-3,4-dihydroisoquinoline-2(1H)-carboxamide]
> 1000 | > 1000 |  |  | CC(=O)N1CCc2cc(-c3ccn(C)c(=O)c3)cc(N3CCCc4cc(-c5cnn(C)c5)c(C(F)F)cc43)c2C1 [Compound M001144]
> 1000 | > 1000 |  |  | CC(=O)N1Cc2cc(C3CCC([S@@](C)(=N)=O)CC3)cc(N3CCCc4cc(-c5cnn(C)c5)c(C(F)F)cc43)c2C1 (stereo partly shown) [Compound M001328]
> 1000 | > 1000 |  |  | CNC(=O)N1CCc2cc(C3CCN(C)CC3)cc(N3CCCc4cc(-c5cnn(C)c5)c(C(F)F)cc43)c2C1 [Compound M001018]
> 1000 | < 1000 |  |  | CC(=O)N1Cc2cc(C3CCC(O)CC3)cc(N3CCCc4cc(-c5cnn(C)c5)c(C(F)F)cc43)c2C1 (stereo not shown) [Compound M001064]
> 1000 | > 1000 |  |  | CC(=O)N1CCc2cc(C3CCN(C)C(=O)C3)cc(N3CCCc4cc(-c5cnn(C)c5)c(C(F)F)cc43)c2C1 (stereo not shown) [Compound M001143]
> 1000 | > 1000 |  |  | CNC(=O)N1CCc2cc(C3CCC(=O)CC3)cc(N3CCCc4cc(-c5cnn(C)c5)c(C(F)F)cc43)c2C1 [Compound M001103]
> 1000 | < 1000 |  |  | CC(=O)N1Cc2cc(C3CCC(=O)CC3)cc(N3CCCc4cc(-c5cnn(C)c5)c(C(F)F)cc43)c2C1 [Compound M001102]
> 1000 | > 1000 |  |  | CNC(=O)N1CCc2cc(C3CCN(C(=O)C4CCNC4)CC3)cc(N3CCCc4cc(-c5cnn(C)c5)c(C(F)F)cc43)c2C1 (stereo not shown) [Compound M001075]
< 1000 | < 1000 |  |  | CCN1CCC(c2cc3c(c(N4CCCc5cc(-c6cnn(C)c6)c(C(F)F)cc54)c2)CN(C(=O)NC)CC3)CC1=O (stereo not shown) [Compound M001186]
